This assay has as its system diabetic ob/ob mice. As to the kind of experiment: Single dose effect of oral and parenteral administration on blood glucose levels in diabetic ob/ob mice (Example 24). Type of assay: in vivo. The source says:
This was examined using Compound 5 to test the effect on blood glucose (BG) levels in the ob/ob mutant mice after intraperitoneal (i.p.) and peroral (p.o.) administration. […] Forty female diabetic ob/ob mice (Umeä strain, Bomholtgaard), which are obese due to a dominant mutant leptin (Tomita, T., Doull, V., Pollock, H. G., and Krizsan, D. 1992. Pancreatic islets of obese hyperglycemic mice (ob/ob). […] At arrival the animals were 8 weeks of age. The mice were allowed 2 weeks of acclimatization before experiments were initiated. At the time of experiment the mice were 13 weeks old with a body weight of 41.8±3.2 g (mean±SD; n=42). Handling of the mice one and three days before the experiment was performed in order to reduce stress-induced BG excursions. On the day of the experiment, blood was taken from the tip of the tail 2-3 hours after the light was turned on. A single drop of blood (<5 μl) was dropped on the glucose strip for analysis and measured by an Elite Autoanalyser, Bayer, Denmark. Whole blood glucose (BG) concentration was analysed by the immobilised glucose oxidase method. Blood glucose levels varied between normoglycaemia and severe hyperglycaemia (range: 3.6-15.6 mM; mean±SD: 9.4±3.3 mM: n=42). Six animals with BG <5.8 mM were excluded from the study (total n=36). The remaining animals were stratified based on their BG levels in order to ensure that the mean BG was similar among groups. […] Compound 5 (batch nr. ZP 3.12 fraction 1-2. […] The peptide was dissolved in sterile isotonic NaCl shortly before dosing and given in a volume of 0.2 ml. The same solutions were used for both p.o. and i.p. administration. For each animal, a data log sheet was filled out at the time of each blood sampling. […] During control conditions, BG levels in non-fasted ob/ob mice were similar in all groups (individual group data not shown), but within groups, there was a great scatter on BG levels (BG range for all animals: 5.8-15.6 mM). Therefore, to correct for the varying degree of hyperglycemia, results are expressed as the relative difference from baseline (% control). […] In most groups (5/6), BG increased between 4 and 8 hrs after drug administration. Compound 5 reduced the BG levels in a dose of 110 μg/mouse when administered i.p. in diabetic ob/ob mice (data not shown). The antidiabetic effect was observed after 60 minutes and was maximal 2-4 h after administration of the compound. […] Glucagon-like peptide-1 and the entero-insular axis in obese hyperglycaemic (ob/ob) mice.

“Also recorded” adds a separate entry of the source.

As for `CCCCCCCCCCCCCCCC(=O)NCCCC[C@H](NC(=O)[C@H](CCCNC(=N)N)NC(=O)CNC(=O)[C@H](CCCCN)NC(=O)[C@@H](NC(=O)[C@H](CC(C)C)NC(=O)[C@H](Cc1c[nH]c2ccccc12)NC(=O)[C@H](C)NC(=O)[C@@H](NC(=O)[C@H](Cc1ccccc1)NC(=O)[C@H](CCC(=O)O)NC(=O)[C@H](CCCCN)NC(=O)[C@H](C)NC(=O)[C@H](C)NC(=O)[C@H](CCC(N)=O)NC(=O)CNC(=O)[C@H](CCC(=O)O)NC(=O)[C@H](CC(C)C)NC(=O)[C@H](Cc1ccc(O)cc1)NC(=O)[C@H](CO)NC(=O)[C@H](CO)NC(=O)[C@@H](NC(=O)[C@H](CC(=O)O)NC(=O)[C@H](CO)NC(=O)[C@@H](NC(=O)[C@H](Cc1ccccc1)NC(=O)[C@@H](NC(=O)CNC(=O)[C@H](CCC(=O)O)NC(=O)CNC(=O)[C@@H](N)Cc1c[nH]cn1)[C@@H](C)O)[C@@H](C)O)C(C)C)[C@@H](C)CC)C(C)C)C(=O)N[C@@H](CCCCN)C(=O)N[C@@H](CCCCN)C(=O)N[C@@H](CCCCN)C(=O)N[C@@H](CCCCN)C(=O)N[C@@H](CCCCN)C(=O)N[C@@H](CCCCN)C(N)=O` [Compound 5], the “time of BG nadir after administration” value (110 μg i.p.) was 1 to 2 h. Also, where the note is “110 μg/mouse i.p.”, the “duration of effect (long-lasting effect)” value is greater than 8 h, the “effect on blood glucose (BG) levels” value is given as “reduced BG levels; also recorded: sustained decrease in BG; also recorded: effectively lowers BG levels”, the “time at which antidiabetic effect was observed” value amounted to 60 min and the “time of maximal antidiabetic effect after administration” value was in the range of 2 to 4 h. Also, the “effect on blood glucose (BG) levels” value (p.o., doses lower than 1100 μg/mouse) is recorded as “not at lower doses”.

The values are drawn from patent USRE45313E1, “Exendin variant peptides” (priority 1999, dated 2014).
